# Experimental data taken from patent US8486931B2, “Substituted oxindole compounds” (Abbott GmbH & Co. KG, priority 2007, dated 2013).
# pKi: −log10 of the molar value.
# Biological target: T1, human vasopressin V1b receptor (Homo sapiens, UniProt P47901)
# T1 construct: expressed in transfected cells; host or cells: CHO-K1 (cell line hV1b-3H2_CHO), membrane preparation
# T1 sequence (P47901 1-424): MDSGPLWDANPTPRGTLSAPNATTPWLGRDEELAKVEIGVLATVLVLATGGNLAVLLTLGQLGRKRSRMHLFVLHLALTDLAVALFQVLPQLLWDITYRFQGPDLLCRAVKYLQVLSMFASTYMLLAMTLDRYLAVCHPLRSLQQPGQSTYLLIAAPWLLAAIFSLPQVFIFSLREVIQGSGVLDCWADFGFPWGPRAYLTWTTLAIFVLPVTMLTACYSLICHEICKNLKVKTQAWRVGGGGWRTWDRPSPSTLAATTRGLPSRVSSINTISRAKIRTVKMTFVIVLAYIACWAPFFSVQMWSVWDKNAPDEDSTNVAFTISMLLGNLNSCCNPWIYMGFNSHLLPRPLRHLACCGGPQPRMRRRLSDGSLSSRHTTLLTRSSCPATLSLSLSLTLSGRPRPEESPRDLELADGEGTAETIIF
# Test: Vasopressin V1b receptor binding assay
# Details: membranes from CHO-K1 cells with stably expressed human V1b receptors, 1.5 nM 3H-AVP displacement; with more than one stereogenic center: the diastereomer with stronger affinity
# Method: Such compounds can be investigated in suitable assays which establish the affinity to a receptor, with the affinity constant Ki represening a measure of the potency of the compounds and a smaller value representing a larger potency. The compounds of the invention were tested in the following receptor binding assay for their affinity for the V1 b receptor.
# Vasopressin V1 b Receptor Binding Assay:
# The test substances were dissolved in a concentration of 10^−2 M in DMSO (dimethyl sulfoxide) and further diluted to 5×10^−4 M to 5×10^−9 M in DMSO. This series of DMSO predilutions was diluted 1:10 with assay buffer. The substance concentration was again diluted 1:5 in the assay mixture (2% DMSO in the mixture).
# The membrane pellet was again homogenized and centrifuged as described and then taken up in 50 mM Tris-HCl, pH 7.4, homogenized and stored in aliquots frozen in liquid nitrogen at −190° C.
# The incubation buffer was: 50 mM Tris, 10 mM MgCl2, 0.1% BSA, pH 7.4.
# The nonspecific binding was determined with 1 μM AVP (Bachem #H1780). All determinations were carried out as triplicate determinations. After incubation (60 minutes at room temperature), the free radioligand was removed by vacuum filtration (Skatron cell harvester 7000) through Whatman GF/B glass fiber filter mats, and the filters were transferred into scintillation vials. The liquid scintillation measurement took place in a Tricarb model 2000 or 2200CA instrument (Packard). Conversion of the measured cpm into dpm was carried out with the aid of a standard quench series.
# The binding parameters were calculated by nonlinear regression in SAS.
# The above assay was used to measure the affinities of the compounds of the invention for the human vasopressin V1 b receptor and to determine with affinity constants (Ki).
row,SMILES,pKi
1,"COc1ccc(C2(N3CCN(c4ccncc4)CC3)C(=O)N(S(=O)(=O)c3cccc4cccnc34)c3ccc(Cl)cc32)c(OC)c1 (racemic) [Example 1, (±)-5-Chloro-3-(2,4-dimethoxyphenyl)-3-(4-pyridin-4-ylpiperazin-1-yl)-1-(quinoline-8-sulfonyl)-1,3-dihydroindol-2-one]",> 8.00
2,"COc1cccc(C2(N3CCN(c4ccncc4)CC3)C(=O)N(S(=O)(=O)c3cccc4cccnc34)c3ccc(Cl)cc32)c1OC (racemic) [Example 2, (±)-5-Chloro-3-(2,3-dimethoxyphenyl)-3-(4-pyridin-4-ylpiperazin-1-yl)-1-(quinoline-8-sulfonyl)-1,3-dihydroindol-2-one]",7.30 to 8.00
3,"COc1ncccc1C1(N2CCN(c3ccncc3)CC2)C(=O)N(S(=O)(=O)c2cccc3cccnc23)c2ccc(C#N)cc21 (racemic) [Example 4, (±)-5-Cyano-3-(2-methoxypyridin-3-yl)-3-(4-pyridin-4-ylpiperazin-1-yl)-1-(quinoline-8-sulfonyl)-2,3-dihydro-1H-indol-2-one]",7.30 to 8.00
4,"CCOc1ccccc1C1(N2CCN(c3ccncc3)CC2C)C(=O)N(S(=O)(=O)c2cccc3cccnc23)c2ccc(C#N)cc21 (racemic) [Example 6, (±)-5-Cyano-3-(2-ethoxyphenyl)-3-(2-methyl-4-pyridin-4-ylpiperazin-1-yl)-1-(quinoline-8-sulfonyl)-2,3-dihydro-1H-indol-2-one]",> 8.00
5,"O=C1N(S(=O)(=O)c2cccc3cccnc23)c2ccc(Cl)cc2C1(c1ccccn1)N1CCN(c2ccncc2)CC1 (racemic) [Example 8, (±)-5-Chloro-3-pyridin-2-yl-3-(4-pyridin-4-ylpiperazin-1-yl)-1-(quinoline-8-sulfonyl)-1,3-dihydroindol-2-one]",7.30 to 8.00
6,"Cc1cccnc1C1(N2CCN(c3ccncc3)CC2)C(=O)N(S(=O)(=O)c2cccc3cccnc23)c2ccc(Cl)cc21 (racemic) [Example 9, (±)-5-Chloro-3-(3-methylpyridin-2-yl)-3-(4-pyridin-4-ylpiperazin-1-yl)-1-(quinoline-8-sulfonyl)-1,3-dihydroindol-2-one]",7.30 to 8.00
7,"COc1nc(Cl)ccc1C1(N2CCN(c3ccncc3)CC2)C(=O)N(S(=O)(=O)c2cccc3cccnc23)c2ccc(Cl)cc21 (racemic) [Example 10, (±)-5-Chloro-3-(6-chloro-2-methoxypyridin-3-yl)-3-(4-pyridin-4-ylpiperazin-1-yl)-1-(quinoline-8-sulfonyl)-1,3-dihydroindol-2-one]",> 8.00
8,"CCOc1ccccc1C1(N2CCN(c3ccncc3)CC2)C(=O)N(S(=O)(=O)c2ccc(C)cn2)c2ccc(C#N)cc21 (racemic) [Example 11, (±)-5-Cyano-3-(2-ethoxyphenyl)-1-(5-methylpyridine-2-sulfonyl)-3-(4-pyridin-4-yl-piperazin-1-yl)-2,3-dihydro-1H-indol-2-one]",7.30 to 8.00
9,"CCOc1ccccc1C1(N2CCN(c3ccncc3)CC2)C(=O)N(S(=O)(=O)c2ccccn2)c2ccc(C#N)cc21 (racemic) [Example 14, (±)-5-Cyano-3-(2-ethoxyphenyl)-1-(pyridine-2-sulfonyl)-3-(4-pyridin-4-yl-piperazin-1-yl)-2,3-dihydro-1H-indol-2-one]",7.30 to 8.00
10,"CCOc1ccccc1C1(N2CCN(c3ccncc3)C(C)C2)C(=O)N(S(=O)(=O)c2cccc3cccnc23)c2ccc(C#N)cc21 (racemic) [Example 17, (±)-5-Cyano-3-(2-ethoxyphenyl)-3-(3-methyl-4-pyridin-4-ylpiperazin-1-yl)-1-(quinoline-8-sulfonyl)-2,3-dihydro-1H-indol-2-one]",7.30 to 8.00
11,"COc1nc(Cl)ccc1C1(N2CCN(c3ccncc3)CC2)C(=O)N(S(=O)(=O)c2cccc3cccnc23)c2ccc(C#N)cc21 (racemic) [Example 19, (±)-5-Cyano-3-(6-chloro-2-methoxypyridin-3-yl)-3-(4-pyridin-4-ylpiperazin-1-yl)-1-(quinoline-8-sulfonyl)-2,3-dihydro-1H-indol-2-one]",7.30 to 8.00
12,"CCOc1ccc(OC)cc1C1(N2C[C@@H]3C[C@H]2CN3c2ccncc2)C(=O)N(S(=O)(=O)c2ccc(C)cn2)c2ccc(C#N)cc21 (mixture of isomers) [Example 20, (±)-5-Cyano-3-(2-ethoxy-5-methoxyphenyl)-1-(5-methylpyridine-2-sulfonyl)-3-((1S, 4S)-5-pyridin-4-yl-2,5-diazabicyclo[2.2.1]hept-2-yl)-2,3-dihydro-1H-indol-2-one]",7.30 to 8.00
13,"CCOc1nc(Cl)ccc1C1(N2CCN(c3ccncc3)CC2)C(=O)N(S(=O)(=O)c2ccc(C)cn2)c2ccc(C#N)cc21 (racemic) [Example 23, (±)-5-Cyano-3-(6-chloro-2-ethoxypyridin-3-yl)-1-(5-methylpyridine-2-sulfonyl)-3-(4-pyridin-4-ylpiperazin-1-yl)-2,3-dihydro-1H-indol-2-one]",7.30 to 8.00
14,"CCOc1nc(Cl)ccc1C1(N2CCN(c3ccncc3)CC2)C(=O)N(S(=O)(=O)c2cccc3cccnc23)c2ccc(C#N)cc21 (racemic) [Example 24, (±)-5-Cyano-3-(6-chloro-2-ethoxypyridin-3-yl)-3-(4-pyridin-4-ylpiperazin-1-yl)-1-(quinoline-8-sulfonyl)-2,3-dihydro-1H-indol-2-one]",> 8.00

# Other lines, results leading:
row,pKi,SMILES
1,> 8.00,"CCOc1ncccc1C1(N2CCN(c3ccncc3)CC2)C(=O)N(S(=O)(=O)c2cccc3cccnc23)c2ccc(C#N)cc21 (racemic) [Example 5, (±)-5-Cyano-3-(2-ethoxypyridin-3-yl)-3-(4-pyridin-4-ylpiperazin-1-yl)-1-(quinoline-8-sulfonyl)-2,3-dihydro-1H-indol-2-one]"
2,7.30 to 8.00,"CCOc1ccccc1C1(N2CCN(c3ccncc3)CC2)C(=O)N(S(=O)(=O)c2ccc(Cl)c3cccnc23)c2ccc(C#N)cc21 (racemic) [Example 12, (±)-5-Cyano-1-(5-chloroquinoline-8-sulfonyl)-3-(2-ethoxyphenyl)-3-(4-pyridin-4-yl-piperazin-1-yl)-2,3-dihydro-1H-indol-2-one]"
3,> 8.00,"CCOc1ccc(OC)cc1C1(N2CCN(c3ccncc3)CC2)C(=O)N(S(=O)(=O)c2cccc3cccnc23)c2ccc(C#N)cc21 (racemic) [Example 13, (±)-5-Cyano-3-(2-ethoxy-5-methoxyphenyl)-3-(4-pyridin-4-yl-piperazin-1-yl)-1-(quinoline-8-sulfonyl)-2,3-dihydro-1H-indol-2-one]"
4,7.30 to 8.00,"CCOc1ccccc1C1(N2CCN(c3ccncc3C)CC2)C(=O)N(S(=O)(=O)c2cccc3cccnc23)c2ccc(C#N)cc21 (racemic) [Example 15, (±)-5-Cyano-3-(2-ethoxyphenyl)-3-[4-(3-methylpyridin-4-yl)-piperazin-1-yl]-1-(quinoline-8-sulfonyl)-2,3-dihydro-1H-indol-2-one]"
5,> 8.00,"CCOc1ccccc1C1(N2CCN(c3ccncc3)CC2)C(=O)N(S(=O)(=O)c2cccc3c(C)ccnc23)c2ccc(C#N)cc21 (racemic) [Example 16, (±)-5-Cyano-3-(2-ethoxyphenyl)-1-(4-methylquinoline-8-sulfonyl)-3-(4-pyridin-4-yl-piperazin-1-yl)-2,3-dihydro-1H-indol-2-one]"
6,> 8.00,"CCOc1ccc(OC)cc1C1(N2CCN(c3ccnc(C)c3)CC2)C(=O)N(S(=O)(=O)c2cccc3c(C)ccnc23)c2ccc(C#N)cc21 (racemic) [Example 18, (±)-5-Cyano-3-(2-ethoxy-5-methoxyphenyl)-3-[4-(2-methylpyridin-4-yl)piperazin-1-yl]-1-(4-methylquinoline-8-sulfonyl)-2,3-dihydro-1H-indol-2-one]"
7,7.30 to 8.00,"COc1ccc(OC(C)C)c(C2(N3CCN(c4ccncc4)CC3)C(=O)N(S(=O)(=O)c3ccc(C)cn3)c3ccc(C#N)cc32)c1 (racemic) [Example 21, (±)-5-Cyano-3-(2-isopropoxy-5-methoxyphenyl)-1-(5-methylpyridine-2-sulfonyl)-3-(4-pyridin-4-ylpiperazin-1-yl)-2,3-dihydro-1H-indol-2-one]"
8,> 8.00,"CCOc1ccccc1C1(N2CCN(c3ccncc3)CC2)C(=O)N(S(=O)(=O)c2ccc(OC)cn2)c2ccc(C#N)cc21 (racemic) [Example 22, (±)-5-Cyano-3-(2-ethoxyphenyl)-1-(5-methoxypyridine-2-sulfonyl)-3-(4-pyridin-4-yl-piperazin-1-yl)-2,3-dihydro-1H-indol-2-one]"
